Here are results for 20 compounds from ChEMBL document CHEMBL3352182, “Discovery and Development of LX7101, a Dual LIM-Kinase and ROCK Inhibitor for the Treatment of Glaucoma” (ACS Med Chem Lett, 2015).

As a reminder, the IC50 is the concentration that gives 50% inhibition. One may read the Kd as the equilibrium constant for the complex coming apart. A low value points to higher affinity. One may read the Cmax as the maximum level reached in the sampled fluid or tissue.

T3 sequence (O75116 whole entry): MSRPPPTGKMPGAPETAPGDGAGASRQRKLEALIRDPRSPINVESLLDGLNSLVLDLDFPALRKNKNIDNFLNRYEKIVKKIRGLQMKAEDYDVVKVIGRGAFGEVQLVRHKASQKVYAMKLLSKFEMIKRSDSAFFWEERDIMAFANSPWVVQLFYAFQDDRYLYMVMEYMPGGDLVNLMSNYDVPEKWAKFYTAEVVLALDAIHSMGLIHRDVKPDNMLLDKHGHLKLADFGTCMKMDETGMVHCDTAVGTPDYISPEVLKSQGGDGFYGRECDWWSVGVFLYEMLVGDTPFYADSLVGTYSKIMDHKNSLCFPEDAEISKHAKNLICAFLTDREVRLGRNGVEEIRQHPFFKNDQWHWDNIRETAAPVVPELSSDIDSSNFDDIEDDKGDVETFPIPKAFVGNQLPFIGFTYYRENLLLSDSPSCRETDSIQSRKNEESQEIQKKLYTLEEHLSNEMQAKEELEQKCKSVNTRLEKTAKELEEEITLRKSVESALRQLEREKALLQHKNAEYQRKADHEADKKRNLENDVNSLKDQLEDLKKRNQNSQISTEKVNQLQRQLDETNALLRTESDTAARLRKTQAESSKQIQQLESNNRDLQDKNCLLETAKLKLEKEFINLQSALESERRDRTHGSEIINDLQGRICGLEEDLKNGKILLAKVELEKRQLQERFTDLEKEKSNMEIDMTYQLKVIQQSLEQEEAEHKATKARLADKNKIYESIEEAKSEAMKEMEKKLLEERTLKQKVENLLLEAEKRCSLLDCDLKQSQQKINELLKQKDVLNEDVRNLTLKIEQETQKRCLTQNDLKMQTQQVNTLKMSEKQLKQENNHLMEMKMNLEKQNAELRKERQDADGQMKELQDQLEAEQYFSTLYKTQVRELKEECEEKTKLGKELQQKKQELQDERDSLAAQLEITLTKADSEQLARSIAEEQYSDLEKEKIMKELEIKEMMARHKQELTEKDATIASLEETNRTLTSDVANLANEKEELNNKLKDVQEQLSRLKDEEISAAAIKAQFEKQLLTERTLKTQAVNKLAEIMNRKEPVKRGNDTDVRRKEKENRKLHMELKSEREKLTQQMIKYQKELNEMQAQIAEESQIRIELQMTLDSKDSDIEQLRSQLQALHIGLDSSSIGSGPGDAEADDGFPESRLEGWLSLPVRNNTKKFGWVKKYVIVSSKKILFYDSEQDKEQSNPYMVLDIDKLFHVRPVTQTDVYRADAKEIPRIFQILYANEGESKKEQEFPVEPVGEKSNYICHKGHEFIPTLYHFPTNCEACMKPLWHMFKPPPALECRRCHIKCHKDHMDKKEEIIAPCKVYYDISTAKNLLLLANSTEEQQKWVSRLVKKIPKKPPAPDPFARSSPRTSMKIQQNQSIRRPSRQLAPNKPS
Sequence of LIM domain kinase 1 (P53667 whole entry, the tested form may be a part): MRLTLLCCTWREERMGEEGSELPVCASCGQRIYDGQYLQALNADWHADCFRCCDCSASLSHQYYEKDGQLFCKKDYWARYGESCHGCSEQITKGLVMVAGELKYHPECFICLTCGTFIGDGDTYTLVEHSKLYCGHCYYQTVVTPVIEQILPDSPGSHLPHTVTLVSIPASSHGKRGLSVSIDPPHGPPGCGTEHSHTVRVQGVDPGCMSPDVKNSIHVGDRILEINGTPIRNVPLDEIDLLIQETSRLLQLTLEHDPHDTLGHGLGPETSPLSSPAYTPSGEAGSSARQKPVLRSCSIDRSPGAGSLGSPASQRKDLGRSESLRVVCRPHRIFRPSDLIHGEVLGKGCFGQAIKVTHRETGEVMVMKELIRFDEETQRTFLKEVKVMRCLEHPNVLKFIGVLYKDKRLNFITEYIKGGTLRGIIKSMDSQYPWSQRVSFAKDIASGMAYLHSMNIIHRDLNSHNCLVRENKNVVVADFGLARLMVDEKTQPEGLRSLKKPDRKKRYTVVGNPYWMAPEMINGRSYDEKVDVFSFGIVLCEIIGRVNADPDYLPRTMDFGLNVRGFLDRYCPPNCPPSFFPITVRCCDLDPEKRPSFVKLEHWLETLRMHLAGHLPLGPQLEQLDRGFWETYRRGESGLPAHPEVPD

Tested on in the first series: not listed separately
Put plainly: Stability of the compound in 1:1 H2O/MeOH assessed as decomposition measured at 60 degC after 24 hrs by HPLC. The series is classed as physicochemical.
Settings: not given
As for `Cc1c[nH]c2ncnc(N3CCN(C(=O)Nc4ccccc4)[C@@H](C)C3)c12`, the Stability result is “Unstable”. Same read-out and setting: with `Cc1c[nH]c2ncnc(N3CCN(C(=O)Cc4ccccc4)[C@@H](C)C3)c12` the entry was “Stable”.

For another series, the target named is T1, LIM domain kinase 2 (Homo sapiens, UniProt P53671). Kind of series: Inhibition of human full-length LIMK2 assessed as incorporation of P33 from ATP into biotinylated-cofilin substrate by scintillation counting analysis in presence of 2 uM ATP.
T1 sequence (P53671 whole entry, the tested form may be a part): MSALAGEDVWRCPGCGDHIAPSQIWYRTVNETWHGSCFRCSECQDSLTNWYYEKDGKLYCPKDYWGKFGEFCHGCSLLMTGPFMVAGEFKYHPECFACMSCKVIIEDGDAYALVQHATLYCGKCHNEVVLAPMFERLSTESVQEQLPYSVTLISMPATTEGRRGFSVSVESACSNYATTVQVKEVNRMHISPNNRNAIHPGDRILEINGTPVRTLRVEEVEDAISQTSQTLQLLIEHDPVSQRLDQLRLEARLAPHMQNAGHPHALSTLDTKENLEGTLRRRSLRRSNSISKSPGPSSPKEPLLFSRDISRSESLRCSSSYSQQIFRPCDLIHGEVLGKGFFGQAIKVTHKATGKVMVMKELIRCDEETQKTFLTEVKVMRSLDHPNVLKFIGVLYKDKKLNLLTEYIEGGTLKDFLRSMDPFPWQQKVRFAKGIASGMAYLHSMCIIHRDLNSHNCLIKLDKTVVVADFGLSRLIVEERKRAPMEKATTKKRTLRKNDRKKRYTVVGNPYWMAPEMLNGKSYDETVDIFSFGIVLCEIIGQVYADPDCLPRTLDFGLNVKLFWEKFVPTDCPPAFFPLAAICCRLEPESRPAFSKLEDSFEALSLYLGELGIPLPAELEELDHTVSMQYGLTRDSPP
Settings: not given
Consider `Cc1c[nH]c2ncnc(N3CCN(C(=O)N[C@@H](C)c4ccccc4)[C@@H](C)C3)c12`, for which the IC50 worked out at 9.9 nM.

For the compound `COc1cccc(NC(=O)N2CCN(c3ncnc4[nH]cc(C)c34)C[C@@H]2C)c1`, the IC50 amounted to 2.7 nM.

With `Cc1c[nH]c2ncnc(N3CCN(C(=O)Nc4ccccc4)[C@@H](C)C3)c12`, the IC50 was found to be 1.2 nM. On to `Cc1c[nH]c2ncnc(N3CCN(C(=O)Cc4ccccc4)[C@@H](C)C3)c12`, for which the IC50 was 660 nM. Same read-out and setting: with `Cc1c[nH]c2ncnc(N3CCN(C(=O)N[C@H](C)c4ccccc4)[C@@H](C)C3)c12` the figure was 180 nM. Turning to `Cc1c[nH]c2ncnc(N3CCN(C(=O)Nc4cccc(OC(=O)N(C)C)c4)C(C(C)(C)C)C3)c12` (centres undefined), the IC50 is 26 nM. Regarding `Cc1c[nH]c2ncnc(N3CCN4C(=O)N(c5ccccc5)CC4C3)c12` (centres undefined), the IC50 was above 1000 nM.

In the case of `Cc1c[nH]c2ncnc(N3CCC(C(=O)Nc4cccc(OC(C)C)c4)CC3)c12`, the IC50 was 330 nM. Regarding `C=CCC1(C(=O)Nc2cccc(Cl)c2)CCN(c2ncnc3[nH]cc(C)c23)CC1`, the IC50 worked out at 1.9 nM. Still for that read-out and setting: then `Cc1c[nH]c2ncnc(N3CCC(C)(C(=O)Nc4cccc(C(C)(C)C)c4)CC3)c12`, with 3.2 nM; and `C=CCC1(C(=O)Nc2cccc(OC(=O)N(C)C)c2)CCN(c2ncnc3[nH]cc(C)c23)CC1`, with 2.2 nM. Turning to `Cc1c[nH]c2ncnc(N3CCC(C)(C(=O)Nc4cccc(OC(=O)N(C)C)c4)CC3)c12`, the IC50 amounted to 4.8 nM.

`Cc1c[nH]c2ncnc(N3CCC(O)(C(=O)Nc4cccc(OC(=O)N(C)C)c4)CC3)c12`: the IC50 worked out at 138 nM. In the case of `Cc1c[nH]c2ncnc(N3CCC(C(=O)Nc4cccc(OC(=O)N(C)C)c4)(N(C)C)CC3)c12`, the IC50 came out at 5.1 nM. `COCCOCC1(C(=O)Nc2cccc(OC(=O)N(C)C)c2)CCN(c2ncnc3[nH]cc(C)c23)CC1`: the IC50 was 2.7 nM. On the same count and under the same terms, with `Cc1c[nH]c2ncnc(N3CCC(Cc4c[nH]cn4)(C(=O)Nc4cccc(OC(=O)N(C)C)c4)CC3)c12` the figure was 1 nM; with `Cc1c[nH]c2ncnc(N3CCC(CCN(C)C)(C(=O)Nc4cccc(OC(=O)N(C)C)c4)CC3)c12`, 7.3 nM; with `Cc1c[nH]c2ncnc(N3CC[C@H](C(=O)Nc4cccc(OC(=O)N(C)C)c4)[C@@H](C)C3)c12` (relative stereo), 210 nM. On the same count and under the same terms, then `Cc1c[nH]c2ncnc(N3CC[C@H](C(=O)Nc4cccc(OC(=O)N(C)C)c4)[C@H](C)C3)c12` (relative stereo), with 110 nM; and `Cc1c[nH]c2ncnc(N3CCC(CN)(C(=O)Nc4cccc(OC(=O)N(C)C)c4)CC3)c12` [LX-7101], with 4.3 nM.

The next series has as its target LIM domain kinase 1 (Homo sapiens, UniProt P53667). Put plainly: Inhibition of human LIMK1 assessed as incorporation of P33 from ATP into biotinylated-cofilin substrate by scintillation counting analysis in presence of 2 uM ATP.
Settings: not given
Regarding `Cc1c[nH]c2ncnc(N3CCC(CCN(C)C)(C(=O)Nc4cccc(OC(=O)N(C)C)c4)CC3)c12`, the IC50 worked out at 134 nM.

In the next series the target is T2, Rho-associated protein kinase 1 (Homo sapiens, UniProt Q13464). Kind of series: Inhibition of human Rock1 assessed as incorporation of P33 from ATP into biotinylated-cofilin substrate by scintillation counting analysis in presence of 2 uM ATP.
T2 sequence (Q13464 whole entry): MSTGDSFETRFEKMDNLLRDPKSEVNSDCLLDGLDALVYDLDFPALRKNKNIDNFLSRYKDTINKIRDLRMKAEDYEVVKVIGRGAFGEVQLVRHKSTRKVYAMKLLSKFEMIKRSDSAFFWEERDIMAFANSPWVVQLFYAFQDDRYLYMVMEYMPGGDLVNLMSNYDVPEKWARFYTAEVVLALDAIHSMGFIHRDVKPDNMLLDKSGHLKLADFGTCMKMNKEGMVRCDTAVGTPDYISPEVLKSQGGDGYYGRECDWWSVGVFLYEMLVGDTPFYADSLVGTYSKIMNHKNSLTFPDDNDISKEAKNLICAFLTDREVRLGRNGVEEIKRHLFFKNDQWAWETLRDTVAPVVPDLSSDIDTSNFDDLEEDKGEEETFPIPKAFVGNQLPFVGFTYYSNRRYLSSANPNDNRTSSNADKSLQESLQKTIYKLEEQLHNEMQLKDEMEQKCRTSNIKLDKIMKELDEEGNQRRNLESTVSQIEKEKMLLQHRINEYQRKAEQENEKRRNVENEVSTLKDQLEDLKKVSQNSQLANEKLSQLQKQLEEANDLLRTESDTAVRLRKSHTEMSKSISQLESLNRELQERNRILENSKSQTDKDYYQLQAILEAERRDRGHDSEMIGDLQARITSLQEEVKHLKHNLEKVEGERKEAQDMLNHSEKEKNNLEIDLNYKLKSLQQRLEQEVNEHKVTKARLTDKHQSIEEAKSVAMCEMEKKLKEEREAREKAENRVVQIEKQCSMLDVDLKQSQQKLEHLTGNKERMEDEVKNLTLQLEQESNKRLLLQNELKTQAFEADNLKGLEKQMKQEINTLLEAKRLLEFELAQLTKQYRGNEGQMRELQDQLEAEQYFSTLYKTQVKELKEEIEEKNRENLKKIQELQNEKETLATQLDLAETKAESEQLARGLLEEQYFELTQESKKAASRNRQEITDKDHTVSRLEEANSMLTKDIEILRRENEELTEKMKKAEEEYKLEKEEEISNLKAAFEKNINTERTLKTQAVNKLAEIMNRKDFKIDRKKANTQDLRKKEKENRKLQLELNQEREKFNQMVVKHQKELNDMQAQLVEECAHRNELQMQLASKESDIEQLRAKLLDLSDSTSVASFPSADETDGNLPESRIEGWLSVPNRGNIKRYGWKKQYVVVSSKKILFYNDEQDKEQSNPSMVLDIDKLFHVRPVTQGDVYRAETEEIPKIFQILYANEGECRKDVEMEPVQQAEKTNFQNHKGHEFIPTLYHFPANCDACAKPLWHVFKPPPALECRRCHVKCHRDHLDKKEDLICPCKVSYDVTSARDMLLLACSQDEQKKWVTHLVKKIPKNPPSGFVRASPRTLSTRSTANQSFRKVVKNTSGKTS
Settings: not given
As to `COCCOCC1(C(=O)Nc2cccc(OC(=O)N(C)C)c2)CCN(c2ncnc3[nH]cc(C)c23)CC1`, the IC50 was above 2800 nM. For the compound `Cc1c[nH]c2ncnc(N3CCC(Cc4c[nH]cn4)(C(=O)Nc4cccc(OC(=O)N(C)C)c4)CC3)c12`, the IC50 is 514 nM. In the case of `Cc1c[nH]c2ncnc(N3CCC(CCN(C)C)(C(=O)Nc4cccc(OC(=O)N(C)C)c4)CC3)c12`, the IC50 is 139 nM.

For `Cc1c[nH]c2ncnc(N3CCC(CN)(C(=O)Nc4cccc(OC(=O)N(C)C)c4)CC3)c12` [LX-7101], the IC50 stood at 69 nM.

A further series has as its target T3, Rho-associated protein kinase 2 (Homo sapiens, UniProt O75116). Kind of series: Inhibition of human Rock2 assessed as incorporation of P33 from ATP into biotinylated-cofilin substrate by scintillation counting analysis in presence of 2 uM ATP.
Settings: not given
`Cc1c[nH]c2ncnc(N3CCC(CN)(C(=O)Nc4cccc(OC(=O)N(C)C)c4)CC3)c12` [LX-7101]: the IC50 was 32 nM.

The next series addresses T1, LIM domain kinase 2. Put plainly: Inhibition of human full-length LIMK2 assessed as incorporation of P33 from ATP into biotinylated-cofilin substrate by scintillation counting analysis in presence of 200 uM ATP.
Settings: not given
As for `Cc1c[nH]c2ncnc(N3CCC(CN)(C(=O)Nc4cccc(OC(=O)N(C)C)c4)CC3)c12` [LX-7101], the IC50 worked out at 7.5 nM.

The target of a further series is T2, Rho-associated protein kinase 1. Put plainly: Inhibition of human Rock1 assessed as incorporation of P33 from ATP into biotinylated-cofilin substrate by scintillation counting analysis in presence of 200 uM ATP.
Settings: not given
As for `Cc1c[nH]c2ncnc(N3CCC(CN)(C(=O)Nc4cccc(OC(=O)N(C)C)c4)CC3)c12` [LX-7101], the IC50 stood at 2200 nM.

In another series the target is T3, Rho-associated protein kinase 2. Put plainly: Inhibition of human Rock2 assessed as incorporation of P33 from ATP into biotinylated-cofilin substrate by scintillation counting analysis in presence of 200 uM ATP.
Settings: not given
Turning to `Cc1c[nH]c2ncnc(N3CCC(CN)(C(=O)Nc4cccc(OC(=O)N(C)C)c4)CC3)c12` [LX-7101], the IC50 is 340 nM.

The test system of another series is Mus musculus. Put plainly: Reduction in dexamethasone-induced ocular hypertensive C57BL/6J-Tyr c-Brd x 129S5/SvEvBrd, F2 generation mouse assessed as intraocular pressure at 5 mg/ml, topical instillation measured after 2 hrs. The series is classed as functional, Eye.
Settings: not given
In the case of `COCCOCC1(C(=O)Nc2cccc(OC(=O)N(C)C)c2)CCN(c2ncnc3[nH]cc(C)c23)CC1`, the Activity is reported as -1.8 mmHg. For the compound `Cc1c[nH]c2ncnc(N3CCC(Cc4c[nH]cn4)(C(=O)Nc4cccc(OC(=O)N(C)C)c4)CC3)c12`, the Activity was -3.5 mmHg. As for `Cc1c[nH]c2ncnc(N3CCC(CCN(C)C)(C(=O)Nc4cccc(OC(=O)N(C)C)c4)CC3)c12`, the Activity was -3.4 mmHg. As for `Cc1c[nH]c2ncnc(N3CCC(CN)(C(=O)Nc4cccc(OC(=O)N(C)C)c4)CC3)c12` [LX-7101], the Activity is recorded as -4.2 mmHg.

Another series concerns the target T1, LIM domain kinase 2. Kind of series: Binding affinity to human LIMK2.
Settings: not given
In turn, `Cc1c[nH]c2ncnc(N3CCC(CN)(C(=O)Nc4cccc(OC(=O)N(C)C)c4)CC3)c12` [LX-7101] returned a Kd below 1000 nM.

The next series concerns the target T3, Rho-associated protein kinase 2. Put plainly: Binding affinity to human Rock2.
Settings: not given
`Cc1c[nH]c2ncnc(N3CCC(CN)(C(=O)Nc4cccc(OC(=O)N(C)C)c4)CC3)c12` [LX-7101] returned a Kd below 1000 nM.

Tested on in the next series: not listed separately
Kind of series: Cmax in rat dosed topically. The series is classed as ADME, organism-based. As to conditions: in vivo, topical or ocular.
In turn, `Cc1c[nH]c2ncnc(N3CCC(CN)(C(=O)Nc4cccc(OC(=O)N(C)C)c4)CC3)c12` [LX-7101] showed a Cmax of 12 nM.

Tested on in a further series: not listed separately
Put plainly: Stability of the compound in aqueous solution formulation at 60 degC after 14 days. As to conditions: read-out: Stability. The series is classed as physicochemical.
`Cc1c[nH]c2ncnc(N3CCC(CN)(C(=O)Nc4cccc(OC(=O)N(C)C)c4)CC3)c12` [LX-7101]: the remaining at 336 h amounted to 99%.
